62 compounds from a melting point compilation (Tetko et al.; mined from patent text by program, amines drawn as free bases though some values may be those of a salt) can be followed below.

A value given as a limit tells only on which side of the number the result lay.

For orientation: melting point means the temperature, or range, at which the solid turns liquid. Turning to `O=[N+]([O-])c1ccc(-n2cccc2)c(Cl)c1`, the melting point fell in the range of 54 to 55 °C.

As to `COCCN1CCN(CCc2ccc(Nc3ncc4c(n3)-c3ccccc3[C@H](c3ccc(F)cc3)C4)cc2)CC1`, the melting point was 195 to 198 °C.

Compound `CC1(C)C(=O)Oc2ccc3ccc(Cn4cnnc4)cc3c21` displayed a melting point of 256 to 257 °C.

For the compound `CNC(=O)ON=C1CCOc2ccccc21`, the melting point lay within 123 to 126 °C.

Consider `CC(C#N)c1cccc(C(=O)c2cc3sccc3s2)c1` (configuration not stated), for which the melting point turned out to be 75 °C.

Consider `COc1c(OC)c(OC)c2c(c1OC)c(=O)c1ccc(OCc3ccccc3)c(OC)c1n2C`, for which the melting point is 127 to 128 °C.

Compound `CC(=O)C1=C(C)c2ccccc2C1(C)C` registered a melting point of 104 to 105 °C.

`O=C(NCCNC(=O)C1CCNC1)OCc1ccccc1` (configuration not stated) had a melting point of 129 to 131 °C.

Regarding `O=C(CC1CCCCC1=O)c1ccc(O)cc1` (configuration not stated), the melting point was 120 to 125 °C.

In turn, `CC(=O)OC1CSC(Oc2cncc(F)c2)C(OC(C)=O)C1OC(C)=O` (configuration not stated) registered a melting point of 143 °C.

Take `CCCCc1csc2ccc3[nH]c4c(c3c12)CN(C(C)C)CC4`: the melting point was in the range of 157 to 158 °C.

Take `O[C@H]1CC[C@H](c2ccc(Br)cc2)CC1`: the melting point was 110 to 111 °C.

Regarding `O=S(=O)(NC1CCCCC1)c1ccc(Cn2cnc3ccccc32)cc1`, the melting point fell in the range of 192 to 193 °C.

The compound `CSc1ccc(-c2nnc(Cl)cc2-c2ccccc2)cc1` had a melting point of 158 °C.

For `CC(C)(C)OC(=O)CC[C@H](NC(=O)c1ccc(N)cc1F)C(=O)OC(C)(C)C`, the melting point is 91 to 95 °C.

In the case of `C=CCc1cn(C(c2ccccc2)(c2ccccc2)c2ccccc2)c(F)n1`, the melting point is 136 to 138 °C.

On to `COc1cc(C(=O)Nc2nn(-c3ccccc3)cc2C=O)ccc1OCc1nc(-c2ccccc2)oc1C`, for which the melting point was in the range of 234 to 235 °C.

For the compound `CC(C)(C)OC(=O)[C@H]1C[C@@H](S(=O)(=O)c2ccccc2)[C@@H](c2ccccc2)N1C(=O)CNC(=O)Nc1cccc(C(=O)OCc2ccccc2)c1` (racemic), the melting point turned out to be 212 °C.

`CCCNC(=O)NNC(=O)c1ccccc1` yielded a melting point of 172 to 174 °C.

For the compound `CCCCC(=O)c1sc(Oc2ccc3c(c2)OCO3)c2c1CCc1cnn(C)c1-2`, the melting point lay in the range of 101 to 102 °C.

`CSc1nc(-c2ccc(Cl)cc2)c(CCC(=O)O)o1` registered a melting point of 183 to 184 °C.

Take `CSc1nnc(Sc2ncnc3c(C)csc23)s1`: the melting point fell in the range of 163 to 166 °C.

The compound `O=[N+]([O-])c1ccccc1-c1nc2ccccc2n1CC(O)CO` (configuration not stated) registered a melting point of 182 to 183 °C.

`O=C(Nc1ccc(C(=O)N2Cc3ccccc3Cc3ccccc32)cc1)c1cc(Cl)cc(Cl)c1Cl` yielded a melting point of 225 to 230 °C.

`CCOP(=O)(CC(Cc1ccccc1)NS(=O)(=O)c1ccc(C)cc1)OCC` (configuration not stated) had a melting point of 86 to 89 °C.

The compound `COc1ccccc1NC(=O)N1CCC(=O)C(C(c2ccccc2)c2ccccc2)C1` (configuration not stated) gave a melting point of 150 to 151 °C.

Consider `CCOC(=O)COc1cccc(-c2cc(O)c(SCCc3ccccc3)c(=O)o2)c1`, for which the melting point lay in the range of 116 to 119 °C.

Turning to `CSc1ccc(Oc2ccc(Cl)c(Cl)c2)nc1C#N`, the melting point lay in the range of 156 to 158 °C.

Consider `CCCCC(OC(C)=O)c1ccccc1COc1cccc2cccnc12` (configuration not stated), for which the melting point fell in the range of 80 to 82 °C.

In turn, `CCCNC1=NS(=O)(=O)c2cc(C(F)(F)F)ccc2N1` yielded a melting point of 241 to 243 °C.

As for `COc1ccc(-c2nc(SC)sc2-c2ccc(OC)cc2)cc1`, the melting point was 102 to 104 °C.

Compound `CCCCNCCOc1ccc(NC(=O)c2c[nH]c3c2C(=O)CCC3)cc1F` yielded a melting point of 290 to 292 °C.

`F[C@H]1C[C@H](COc2ccccc2Cl)N(c2ncnc3[nH]cnc23)C1` returned a melting point of 143 to 144 °C.

Turning to `O=C(O)C1=Cc2c(ccc3occ(-c4ccc(Br)cc4)c23)OC1C(F)(F)F` (configuration not stated), the melting point was over 250 °C.

As to `CCOC(=O)c1cn(C2CC2)c2c(OC(F)F)c(F)c(F)c([N+](=O)[O-])c2c1=O`, the melting point lay within 262 to 268 °C.

`O=c1c2cc3nnn(C4CC4)c(=O)c3cc2ncn1CCn1ncnn1` gave a melting point of 194 to 195 °C.

`O=C(OCc1ccccc1)C1Cc2sccc2C(=O)N1Cc1ccccc1` (configuration not stated): the melting point is 72 °C.

With `Fc1cc(Br)c(OCc2ccccc2)c(Br)c1`, the melting point turned out to be 83 °C.

`Cc1nnsc1C(=O)Nc1ccccc1C(=O)O` came in with a melting point of 223 °C.

Compound `CCCC1c2cc(C(C)(C)C)cc(C(C)(C)C)c2OP(=O)(c2ccccc2)Oc2c1cc(C(C)(C)C)cc2C(C)(C)C` (configuration not stated) came in with a melting point of 232 to 234 °C.

Regarding `O=C(NNC(=S)NNC(=O)c1ccccc1)c1ccccc1`, the melting point was in the range of 177 to 179 °C.

`Cc1cc(C2=NOC(c3cc(Cl)cc(Cl)c3)(C(F)(F)F)C2)ccc1C(=O)NCC(F)(F)F` (configuration not stated) had a melting point of 156 to 157 °C.

In turn, `Cc1oc(-c2ccccc2)nc1COc1ccc(Cn2cc(CO)cn2)cc1` returned a melting point of 100 to 101 °C.

In the case of `Cc1nnc2ccc(-c3ccsc3)nn12`, the melting point is 154 to 156 °C.

The compound `O=C1C(Cl)=C(Cl)C(=O)N1c1ccc(Oc2ccccc2)cc1` showed a melting point of 180 to 181 °C.

Take `Sc1ccc2ccncc2c1Cl`: the melting point is 118 to 122 °C.

Consider `Cc1cccc(C(=O)NC(C)C)c1NC(=O)c1cc(C(F)(F)F)nn1-c1ncccc1Cl`, for which the melting point is 194 to 196 °C.

For the compound `C[C@@H]1C(=O)N(CC(=O)CCc2ccccc2)[C@H]1SCc1ccccc1` (relative stereo), the melting point fell in the range of 69 to 71 °C.

In turn, `CONCc1nc2c(N)nc3cc(OCc4ccccc4)ccc3c2n1CC1CCOCC1` displayed a melting point of 190 to 193 °C.

In turn, `Cc1cc2cc(CN3CCC(C(=O)N4CCCCC4)CC3)cnc2cc1NC(=O)c1ccc(-c2ccc(F)cc2)cc1` gave a melting point of 250 °C.

For `COc1cc(N)c(Cl)cc1C(=O)NCC1CCN(CCCCNC(=O)c2cccc3ccccc23)CC1`, the melting point is 138 to 141 °C.

In turn, `COc1cc(N)c(Cl)cc1C(=O)NCC1CCN(CCCCCNC(=O)c2cccc(Cl)c2)CC1` came in with a melting point of 139 to 142 °C.

The compound `CCc1cc(C(=O)O)c(Nc2ccc(F)cc2[N+](=O)[O-])s1` came in with a melting point of 198 to 200 °C.

The compound `CN1CCC(c2c3n(c4ccc(O)cc24)CCC3)CC1` yielded a melting point of over 250 °C.

Regarding `CCc1c(C)[nH]c2cc(OCCN(C)C)c(Cl)cc2c1=O`, the melting point lay within 227 to 230 °C.

Turning to `COc1ccccc1NC(=O)Nc1nc(Nc2ccccc2C(=O)O)nc(Nc2ccccc2-c2ccccc2)n1`, the melting point worked out at 228 °C.

Take `CCOC(=O)C(Cc1c(OCC)noc1-c1ncn(C(c2ccccc2)(c2ccccc2)c2ccccc2)n1)(NC(C)=O)C(=O)OCC`: the melting point fell in the range of 145 to 149 °C.

`Cc1oc(C=Cc2ccc(Cl)cc2)nc1CCl` yielded a melting point of 121 to 122 °C.

Turning to `CC1NC(=O)C2=C1c1ccc(Cl)cc1C(c1ccccc1Cl)=NC2` (configuration not stated), the melting point fell in the range of 239 to 241 °C.

`OC(CCN1CCC(c2ccccc2)CC1)c1ccc(Cc2ccc(Cl)cc2)cc1` (configuration not stated) displayed a melting point of 98 to 101 °C.

For `O=c1nc(-c2ccc(Cl)s2)cc(C(F)(F)F)[nH]1`, the melting point was found to be 191 °C.

In turn, `NC(=O)N1CCN(c2nn(-c3ccccc3Cl)c3ccccc23)CC1` showed a melting point of 156 to 158 °C.
